From paper PMC12069442 (Frontiers in Pharmacology, 2025)
“Also recorded” adds a separate entry of the source. Where a name gives a salt, the structure may show the parent alone.

test system: not given; experiment: not given; parameters: method as in Ye et al., 2024; conditions: nimodipine coadministration; ref Ye et al., 2024; cited from earlier work

| Compound | elevation of AUC | elevation of Cmax |
| --- | --- | --- |
| CCN1CCN(c2cc(-c3ccc(F)cc3)c3c(n2)CCCCCC3)CC1 [blonanserin] | more than 2 fold | more than 2 fold |

molecular target: CYP3A4.1 (Homo sapiens, UniProt P08684); experiment: not given; conditions: not given
Sequence (P08684 whole entry): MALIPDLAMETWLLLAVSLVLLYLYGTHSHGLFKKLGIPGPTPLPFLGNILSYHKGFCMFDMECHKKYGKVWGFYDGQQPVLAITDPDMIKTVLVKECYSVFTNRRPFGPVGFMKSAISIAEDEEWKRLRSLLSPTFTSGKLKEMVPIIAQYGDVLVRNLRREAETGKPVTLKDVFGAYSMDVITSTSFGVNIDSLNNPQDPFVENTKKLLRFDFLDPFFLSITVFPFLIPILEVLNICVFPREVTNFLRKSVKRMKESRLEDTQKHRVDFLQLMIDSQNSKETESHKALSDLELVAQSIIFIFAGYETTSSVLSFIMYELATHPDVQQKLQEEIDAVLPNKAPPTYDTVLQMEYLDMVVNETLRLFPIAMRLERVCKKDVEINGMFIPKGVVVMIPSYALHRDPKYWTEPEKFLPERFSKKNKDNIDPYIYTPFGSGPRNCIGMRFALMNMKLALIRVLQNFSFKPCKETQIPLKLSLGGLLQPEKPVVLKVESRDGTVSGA

| Compound | α | αKi |
| --- | --- | --- |
| O=c1c(O)c(-c2ccc(O)c(O)c2)oc2cc(O)cc(O)c12 [quercetin, Quercetin] | 0.66 | 10.06 µM |

test system: human liver microsomes (HLM) (Homo sapiens); experiment: Kinetics inhibitory assay of quercetin on ziprasidone metabolism in HLM; format: in vitro ADME; conditions: ziprasidone 2.5–20 μM, quercetin 0, 6.25, 12.5, 25 μM
Sequence (P08684 2-503): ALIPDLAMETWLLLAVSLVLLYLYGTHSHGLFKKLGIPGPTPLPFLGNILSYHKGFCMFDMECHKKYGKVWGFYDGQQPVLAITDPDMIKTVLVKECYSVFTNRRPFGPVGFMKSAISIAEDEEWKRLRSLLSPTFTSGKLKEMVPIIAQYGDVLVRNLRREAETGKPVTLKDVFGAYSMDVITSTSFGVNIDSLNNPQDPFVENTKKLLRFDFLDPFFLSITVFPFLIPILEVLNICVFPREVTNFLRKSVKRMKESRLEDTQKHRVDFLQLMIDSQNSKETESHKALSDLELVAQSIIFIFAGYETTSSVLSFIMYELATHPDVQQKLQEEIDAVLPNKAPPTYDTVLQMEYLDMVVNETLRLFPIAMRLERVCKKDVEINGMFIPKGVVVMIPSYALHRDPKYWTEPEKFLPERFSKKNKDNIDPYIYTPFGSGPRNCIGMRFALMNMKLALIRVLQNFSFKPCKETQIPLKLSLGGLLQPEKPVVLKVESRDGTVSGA

| Compound | Inhibition type |
| --- | --- |
| O=c1c(O)c(-c2ccc(O)c(O)c2)oc2cc(O)cc(O)c12 [quercetin, Quercetin] | mixed inhibitory mechanism; also recorded: mixed inhibition |

molecular target: human liver microsomes (HLM) (Homo sapiens, UniProt P08684); experiment: as above; format: in vitro ADME; conditions: not given
Sequence (P08684 2-503): as above

| Compound | α |
| --- | --- |
| O=c1c(O)c(-c2ccc(O)c(O)c2)oc2cc(O)cc(O)c12 [quercetin, Quercetin] | 0.21 |

same assay, conditions: Lineweaver-Burk secondary plot

| Compound | αKi |
| --- | --- |
| O=c1c(O)c(-c2ccc(O)c(O)c2)oc2cc(O)cc(O)c12 [quercetin, Quercetin] | 4.66 µM |

test system: rat liver microsomes (RLM); experiment: Kinetics inhibitory assay of quercetin on ziprasidone metabolism in RLM; format: in vitro ADME; conditions: RLM

| Compound | α |
| --- | --- |
| O=c1c(O)c(-c2ccc(O)c(O)c2)oc2cc(O)cc(O)c12 [quercetin, Quercetin] | 0.96 |

same assay, conditions: RLM 0.3 mg/mL, ziprasidone 10 μM, quercetin 0–100 μM, n=3

| Compound | IC50 |
| --- | --- |
| O=c1c(O)c(-c2ccc(O)c(O)c2)oc2cc(O)cc(O)c12 [quercetin, Quercetin] | 13.8 ± 0.3 µM |

same assay, conditions: RLM, Lineweaver-Burk secondary plot

| Compound | Ki | αKi |
| --- | --- | --- |
| O=c1c(O)c(-c2ccc(O)c(O)c2)oc2cc(O)cc(O)c12 [quercetin, Quercetin] | 30.7 µM | 29.4 µM |

same assay, conditions: RLM, ziprasidone 2.5–20 μM, quercetin 0, 6.5, 13, 26 μM

| Compound | Inhibition type |
| --- | --- |
| O=c1c(O)c(-c2ccc(O)c(O)c2)oc2cc(O)cc(O)c12 [quercetin, Quercetin] | mixed inhibitory mechanism; also recorded: mixed inhibition |

test system: rat liver microsomes (RLM); experiment: Inhibitor screening on ziprasidone metabolism in RLM; format: in vitro ADME; conditions: 100 μM inhibitor, 0.3 mg/mL RLM, ziprasidone 10 μM, 20 min

| Compound | Relative activity (%) |
| --- | --- |
| O=c1c(-c2ccc(O)cc2)coc2cc(O)ccc12 [Daidzein] | 121.70 ± 5.16% |
| CCCCc1nc(Cl)c(CO)n1Cc1ccc(-c2ccccc2-c2nn[nH]n2)cc1 [Losartan] | 74.09 ± 5.29% |
| COc1c(O)cc(O)c2c(=O)cc(-c3ccccc3)oc12 [Wogonin] | 80.85 ± 12.40% |
| CCN(CC)CCNC(=O)c1ccc(N)cc1 [Procainamide hydrochloride] | 113.37 ± 13.44% |
| CC(C)(O)CNc1nc(Nc2ccnc(C(F)(F)F)c2)nc(-c2cccc(C(F)(F)F)n2)n1 [Enasidenib] | 40.44 ± 1.29% |
| COCCOC(=O)C1=C(C)NC(C)=C(C(=O)OC(C)C)C1c1cccc([N+](=O)[O-])c1 (stereo not drawn) [Nimodipine] | 49.68 ± 0.53% |
| COc1cc2ncnc(Nc3ccc(F)c(Cl)c3)c2cc1OCCCN1CCOCC1 [Gefitinib] | 36.20 ± 0.61% |
| C[C@@H]1C(=O)O[C@H](C)[C@H]1C[C@@H](O)[C@](C)(O)[C@H]1CC[C@@]2(O)C3=CC(=O)[C@@H]4C[C@@H](O)[C@@H](O)C[C@]4(C)[C@H]3CC[C@]12C [Cyasterone] | 83.75 ± 6.16% |
| OC(CNCC(O)C1CCc2cc(F)ccc2O1)C1CCc2cc(F)ccc2O1 (stereo not drawn) [Nebivolol Hydrochloride] | 63.48 ± 3.34% |
| CCCSc1nc(N[C@@H]2C[C@H]2c2ccc(F)c(F)c2)c2nnn([C@@H]3C[C@H](OCCO)[C@@H](O)[C@H]3O)c2n1 [Ticagrelor] | 36.84 ± 20.49% |
| COc1c(O[C@@H]2O[C@H](C(=O)O)[C@@H](O)[C@H](O)[C@H]2O)cc(O)c2c(=O)cc(-c3ccccc3)oc12 [Wogonoside] | 92.55 ± 1.09% |
| CCOC(=O)C1=C(C)NC(C)=C(C(=O)OC)C1c1cccc(Cl)c1Cl (stereo not drawn) [Felodipine] | 28.36 ± 1.67% |
| COc1cc2c(c(OC)c1OC)-c1c(cc(OC)c(OC)c1OC)C[C@H](C)[C@H](C)C2 [Schisandrin A] | 69.51 ± 11.79% |
| CCCCc1nc(Cl)c(CO)n1Cc1ccc(-c2ccccc2-c2nn[nH]n2)cc1 [Losartan potassium] | 35.58 ± 50.31% |
| CCCCN1CCCCC1C(=O)Nc1c(C)cccc1C (stereo not drawn) [Bupivacaine hydrochloride] | 104.14 ± 92.28% |
| O=C1CCc2cc(OCCCCc3nnnn3C3CCCCC3)ccc2N1 [Cilostazol] | 55.05 ± 0.99% |
| COC(=O)[C@H](c1ccccc1Cl)N1CCc2sccc2C1 [Clopidogrel hydrogen sulfate] | 179.48 ± 15.80% |
| COc1ccc(C(C)=O)c(O)c1 [Paeonol] | 108.77 ± 3.51% |
| COc1cc(CCC(C)=O)ccc1O [Vanillylacetone] | 93.56 ± 3.00% |
| CCCCC1=NC2(CCCC2)C(=O)N1Cc1ccc(-c2ccccc2-c2nnn[nH]2)cc1 [Irbesartan] | 72.41 ± 4.72% |
| Cc1cc(O)c2c(c1)C(=O)c1cc(O)cc(O)c1C2=O [Emodin] | 25.64 ± 3.15% |
| Clc1cccc(Cl)c1N=C1NCCN1 [Clonidine hydrochloride] | 74.70 ± 0.47% |
| CCOc1nc2cccc(C(=O)O)c2n1Cc1ccc(-c2ccccc2-c2nnn[nH]2)cc1 [Candesartan] | 54.29 ± 3.95% |

| Compound | Relative activity (%) |
| --- | --- |
| O=c1cc(-c2ccc(O)cc2)oc2cc(O)cc(O)c12 [Apigenin] | 31.41 ± 2.56% |
| CCOc1nc2cccc(C(=O)O)c2n1Cc1ccc(-c2ccccc2-c2nc(=O)o[nH]2)cc1 [Azilsartan] | 92.59 ± 5.86% |
| O=C(NC[C@H]1CN(c2ccc(N3CCOCC3=O)cc2)C(=O)O1)c1ccc(Cl)s1 [Rivaroxaban] | 102.37 ± 4.89% |
| CCCCC(=O)N(Cc1ccc(-c2ccccc2-c2nnn[nH]2)cc1)[C@H](C(=O)O)C(C)C [Valsartan] | 44.50 ± 62.94% |
| CC(C)[C@]12O[C@H]1[C@@H]1O[C@]13[C@]1(O[C@H]1C[C@H]1C4=C(CC[C@@]13C)C(=O)OC4)[C@@H]2O [Triptolide] | 87.47 ± 5.70% |
| COc1ccccc1OCCNCC(O)COc1cccc2[nH]c3ccccc3c12 (stereo not drawn) [Carvedilol] | 29.89 ± 3.28% |
| C=C1C[C@@]23CC[C@H]4[C@@](C)(CCC[C@@]4(C)C(=O)O[C@@H]4O[C@H](CO)[C@@H](O)[C@H](O)[C@H]4O)[C@@H]2CC[C@]1(O[C@@H]1O[C@H](CO)[C@@H](O)[C@H](O)[C@H]1O)C3 [Rubusoside] | 103.75 ± 2.05% |
| O=c1cc(-c2ccccc2)oc2cc(O)cc(O)c12 [Chrysin] | 36.09 ± 19.09% |
| O=C(/C=C/c1ccc(O)c(O)c1)O[C@@H]1C[C@](O)(C(=O)O)C[C@@H](O)[C@H]1O [Chlorogenic acid] | 91.52 ± 17.97% |
| CCCCc1oc2ccc(NS(C)(=O)=O)cc2c1C(=O)c1ccc(OCCCN(CCCC)CCCC)cc1 [Dronedarone Hydrochloride] | 23.67 ± 11.05% |
| Cucurbitacin B | 117.16 ± 18.74% |
| COc1cc(C2Oc3cc([C@H]4Oc5cc(O)cc(O)c5C(=O)[C@@H]4O)ccc3OC2CO)ccc1O (stereo partly drawn) [Silibinin] | 45.13 ± 1.52% |
| O=C(O)[C@H]1O[C@@H](Oc2cc3oc(-c4ccccc4)cc(=O)c3c(O)c2O)[C@H](O)[C@@H](O)[C@@H]1O [Baicalin] | 87.83 ± 13.63% |
| O=c1cc(-c2ccccc2)oc2cc(O)c(O)c(O)c12 [Baicalein] | 97.20 ± 18.86% |
| C=C[C@H]1C[N@@]2CC[C@H]1C[C@@H]2[C@@H](O)c1ccnc2ccc(OC)cc12 [Quinidine] | 83.40 ± 4.78% |
| O=c1c(O)c(-c2cc(O)c(O)c(O)c2)oc2cc(O)cc(O)c12 [Myricetin] | 2.64 ± 1.71% |
| COc1ccc(-c2coc3cc(O)ccc3c2=O)cc1O [Calycosin] | 104.22 ± 12.51% |
| CC(C)(O)[C@H]1CC[C@@](C)([C@H]2[C@@H](O)C[C@@]3(C)[C@@H]4C[C@H](O[C@@H]5O[C@H](CO)[C@@H](O)[C@H](O)[C@H]5O)[C@H]5C(C)(C)[C@@H](O[C@@H]6OC[C@@H](O)[C@H](O)[C@H]6O)CC[C@@]56C[C@@]46CC[C@]23C)O1 [Astragaloside A] | 107.37 ± 18.93% |
| CCOC(=O)C1=C(COCCN)NC(C)=C(C(=O)OC)C1c1ccccc1Cl (stereo not drawn) [Amlodipine] | 24.44 ± 2.51% |
| O=C1CCC[C@@H]2[C@H]3CCCN4CCC[C@@H](CN12)[C@@H]34 [Matrine] | 98.65 ± 1.77% |
| CCCc1nc2c(C)cc(-c3nc4ccccc4n3C)cc2n1Cc1ccc(-c2ccccc2C(=O)O)cc1 [Telmisartan] | 64.19 ± 12.39% |
| CCN(CC)CC(=O)Nc1c(C)cccc1C [Lidocaine] | 93.56 ± 10.94% |
| CCCN1CCCC[C@H]1C(=O)Nc1c(C)cccc1C [Ropivacaine hydrochloride] | 102.42 ± 0.84% |

same assay, conditions: 100 μM inhibitor, RLM

| Compound | suppression of the metabolism of ziprasidone |
| --- | --- |
| Oc1ccc(/C=C/c2cc(O)cc(O)c2)cc1 [resveratrol, Resveratrol] | over 80% |
| O=c1c(O)c(-c2ccc(O)c(O)c2)oc2cc(O)cc(O)c12 [quercetin, Quercetin] | over 80% |
